From ChEMBL document CHEMBL3137667, “[Drug-induced liver injury; fourteenth updated edition of the bibliographic database of liver injuries and related drugs]” (Gastroenterol Clin Biol, 2004)

How the values were obtained:
[1] = Proposed mechanism(s) of liver damage. [column 'MEC' in source]; conditions: human
[2] = human
[3] = Times to onset, minimal and maximal, observed in the indexed observations. [column 'DELAI' in source]; conditions: human
[4] = human, serum
[5] = human, serum; remark: listed apart in the source
[6] = Highest frequency of moderate liver toxicity observed during clinical trials, expressed as a percentage. [column '% BIOL' in source]; conditions: human
[7] = human, serum, 4383 h
[8] = human; remark: listed apart in the source
[9] = Highest frequency of acute liver toxicity observed during clinical trials, expressed as a percentage. [column '% AIGUE' in source]; conditions: human
[10] = Comments (NB not yet translated). [column 'COMMENTAIRES' in source]; conditions: human
[11] = human; remark: listed apart in the source
[12] = human; remark: listed apart in the source
[13] = human; remark: listed apart in the source
[14] = human; remark: listed apart in the source
[15] = Presence of at least one case with successful reintroduction. [column 'REINT' in source]; conditions: human
[16] = human; remark: listed apart in the source
[17] = human; remark: listed apart in the source
[18] = human; remark: listed apart in the source
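Wherever Hepatotoxicity (association with vascular disease) is given: count of indexed literature references reporting vascular liver injury in humans, e.g. peliosis hepatitis, hepatic veno-occlusive disease or Budd-Chiari syndrome.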
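Wherever Hepatotoxicity (benign tumour) is given: value is a count of indexed literature references citing a benign tumour confirmed by histopathology.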
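Wherever Hepatotoxicity (choleostasis) is given: human cholestatic liver injury, shown by histopathology or by peak ALT or AST elevation over alkaline phosphatase ratio below 2, value counts indexed literature reports.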
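Wherever Hepatotoxicity (chronic liver disease) is given: chronic liver injury confirmed by histopathology or persistently raised serum aminotransferase activity beyond 6 months, value given as the count of indexed literature references.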
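Wherever Hepatotoxicity (cirrhosis) is given: value is a count of indexed literature references reporting cirrhosis confirmed by histopathology.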
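Wherever Hepatotoxicity (cytolytic) is given: human cytolytic liver injury, shown by histopathology or by a ratio above 5 of peak ALT or AST elevation to alkaline phosphatase elevation, value counts indexed references.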
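Wherever Hepatotoxicity (granulomatous hepatitis) is given: value is a count of indexed literature references reporting granulomatous liver disease confirmed by histopathology.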
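Wherever Hepatotoxicity (malignant tumour) is given: malignant tumour confirmed by histopathology, value gives the count of indexed literature references reporting it.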
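Wherever Hepatotoxicity (severe hepatitis) is given: human clinical data: severe hepatitis, meaning potentially life-threatening liver failure or clinically observed cases, the value counts how many indexed literature references report it.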
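Wherever Hepatotoxicity (steatosis) is given: steatosis confirmed by histopathology, value is the count of indexed references.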

Row | Compound | Hepatotoxicity (mechanism) [1] | Hepatotoxicity (association with vascular disease) [2] | Hepatotoxicity (time to onset) [3] | Hepatotoxicity (moderate) [4] | Hepatotoxicity (acute) [5] | Hepatotoxicity (moderate) [6] [%] | Hepatotoxicity (chronic liver disease) [7] | Hepatotoxicity (granulomatous hepatitis) [8] | Hepatotoxicity (acute) [9] [%] | Hepatotoxicity (comment) [10] | Hepatotoxicity (benign tumour) [11] | Hepatotoxicity (choleostasis) [12] | Hepatotoxicity (cirrhosis) [13] | Hepatotoxicity (steatosis) [14] | Hepatotoxicity (successful reintroduction) [15] | Hepatotoxicity (cytolytic) [16] | Hepatotoxicity (severe hepatitis) [17] | Hepatotoxicity (malignant tumour) [18] | further results
1 | NC1=NC(=O)C(c2ccccc2)O1 (stereo not drawn) [PEMOLINE] | Allergic, Dose-dependant | 0 | 3 days - 3 years | 4 | 16 | 2 | 0 | 0 | 0.3 | AC_ANTI-MF/-N AGGRAVATION_HEPATITE_AUTOIMMUNE | 0 | 0 | 0 | 1 | yes | 14 | 10 | 0 | –
2 | CC(C)(S)[C@@H](N)C(=O)O [PENICILLAMINE] | Allergic | 0 | 4 days - 2 years | 12 | 31 | 6 | 1 | 2 | 0 | CHOLESTASE_PROLONGEE CHOLANGITE | 0 | 28 | 0 | 5 | yes | 5 | 0 | 0 | –
3 | CCC1(c2ccccc2)C(=O)NC(=O)NC1=O [PHENOBARBITAL] | Allergic | 0 | 6 days - 2 years | 8 | 30 | 0 | 1 | 1 | 0 | I/PARACETAMOL AC_ANTI-N/-MF CHOLANGITE | 0 | 4 | 0 | 1 | yes | 23 | 10 | 0 | –
4 | CCC(c1ccccc1)c1c(O)c2ccccc2oc1=O (stereo not drawn) [PHENPROCOUMON] | Allergic | 0 | 6 days - 7 years | 2 | 18 | 37 | 1 | 1 | 0 | RC/ACENOCOUMAROL/WARFARINE CHOLANGITE AC_ANTI-ML/-N | 0 | 7 | 1 | 0 | yes | 14 | 4 | 0 | –
5 | O=C1NC(=O)C(c2ccccc2)(c2ccccc2)N1 [PHENYTOIN] | – | 0 | 1 day - 11 years | 29 | 84 | – | 6 | – | – | #MNI CHOLESTASE_PROLONGEE DUCTOPENIE #CBP | 0 | – | 0 | 4 | yes | – | – | 0 | Hepatotoxicity (mechanism) ([1]; Liver): Allergic, Reactive metabolite; Hepatotoxicity (moderate) ([6]; Liver): 90%; Hepatotoxicity (granulomatous hepatitis) ([8]; Liver): 5; Hepatotoxicity (acute) ([9]; Liver): 2%; Hepatotoxicity (choleostasis) ([12]; Liver): 30; Hepatotoxicity (cytolytic) ([16]; Liver): 53; Hepatotoxicity (severe hepatitis) ([17]; Liver): 14
6 | CN1C(C(=O)Nc2ccccn2)=C(O)c2ccccc2S1(=O)=O [PIROXICAM] | Allergic, Toxic | 0 | 3 days - 1 year | 12 | 19 | 73 | 0 | 1 | 0.8 | AC_ANTI-N CHOLESTASE_PROLONGEE | 0 | 10 | 0 | 0 | yes | 13 | 5 | 0 | –
7 | CCN(CC)CCNC(=O)c1ccc(N)cc1 [PROCAINAMIDE] | Allergic | 0 | 3 hours - 3 months | 1 | 4 | – | 0 | 4 | – | AC_ANTI-M3 | 0 | 4 | 0 | 0 | yes | 1 | – | 0 | Hepatotoxicity (moderate) ([6]; Liver): 0%; Hepatotoxicity (acute) ([9]; Liver): 0%; Hepatotoxicity (severe hepatitis) ([17]; Liver): 0
8 | CCCNCC(O)COc1ccccc1C(=O)CCc1ccccc1 (stereo not drawn) [PROPAFENONE] | Allergic | 0 | 6 days - 16 months | 7 | 9 | 10.6 | 0 | 0 | 7.7 | CHOLANGITE PRICHOLANGITE AC_ANTI-N | 0 | 6 | 0 | 0 | yes | 1 | 0 | 0 | –
9 | CO[C@H]1/C=C/O[C@@]2(C)Oc3c(C)c(O)c4c(O)c(cc(O)c4c3C2=O)NC(=O)/C(C)=C\C=C\[C@H](C)[C@H](O)[C@@H](C)[C@@H](O)[C@@H](C)[C@H](OC(C)=O)[C@@H]1C [RIFAMYCIN] | Allergic | 0 | 6 hours - 13 days | 5 | 3 | 10 | 0 | 0 | 2.3 | CHOLANGITE I/ISONIAZIDE | 0 | 2 | 0 | 0 | yes | 2 | 0 | 0 | –
10 | CC(C)c1nc(CN(C)C(=O)N[C@H](C(=O)N[C@@H](Cc2ccccc2)C[C@H](O)[C@H](Cc2ccccc2)NC(=O)OCc2cncs2)C(C)C)cs1 [RITONAVIR] | Dose-dependant | 0 | < 1 day - 6 months | 10 | 14 | 44 | 0 | 0 | 32.1 | REACTIVATION_HVB/HVC | 0 | 2 | 0 | 1 | yes | 11 | 1 | 0 | –
11 | Cc1cn([C@H]2C=C[C@@H](CO)O2)c(=O)[nH]c1=O [STAVUDINE] | Dose-dependant, Mitochondrial toxicity, Toxic | 0 | 6 days - 5 years | 13 | 29 | 65.6 | 0 | 0 | 17.1 | REACTIVATION_HVB/HVC | 0 | 5 | 0 | 25 | yes | 22 | 14 | 0 | –
